{"source": "patent US20260263517A1", "about": "“THERAPEUTIC METHODS WITH TARGET-LINKED SMALL MOLECULES AND ANTI-TARGET CAR T CELLS” (Seattle Children's Hospital (dba Seattle Children's …, priority 2022, published 2026)", "test_system": "MDA-MB-231 tumors", "assay": "EC17 dose finding and CRS assessment in MDA-MB-231 tumor-bearing mice", "format": "in vivo", "details": "for human IFNγ in mouse plasma, fold over CAR-T cells only: all EC17 treated tumor cohorts", "method": "All animal care and use were performed according to NIH guidelines and in compliance with protocols approved by the Purdue University Animal Use and Care Committee. Female 4 to 5-week-old NOD/SCID gamma (NSG™) mice (stock number:005557) were purchased from The Jackson Faboratory (Bar Harbor, ME). Unless specifically indicated, all animals were maintained on a FA-deficient diet (TestDiet, St. Fouis, MO) upon arrival and throughout the study. To establish subcutaneous xenografts, MDA-MB-231 and HOS-FRα were implanted in the right flank region at 2.5×10^6 and 1×10^6 cells per animal, respectively. For intravenous xenografts, THP1-FRβ) cells were inoculated at 5×10^6 cells per animal. Subcutaneous tumors were measured 2-3 times per week with a caliper and calculated using the ellipsoidal formula (length×width2)/2. […] All animal doses (CAR-T cells, EC17, sodium fluorescein) were given intravenously.\nIn a therapeutic setting, EC17 CAM can be given before or after CAR-T cell injection. As described herein, the first dose of EC17 was administered 2-3.5 days after CAR-T cells to allow for an observation period of human T cells in tumor-bearing mice. Two batches of unsorted E2-CAR-T cells (23% or 39% EGFRt+, 1:1 CD4/CD8) were used for in vivo studies. On the day of infusion for each experiment (day 0), frozen CAR-T cells were quickly thawed at 37° C., washed 2× with Dulbecco's IX PBS (pH 7.4) and injected into the tail vein at desired EGFRt+E2-CAR-T cell doses. In addition, a small aliquot of CAR-T cells was analyzed by flow cytometry for CD4 to CD 8 ratio and differentiation status of CAR-T cells. On the first day of EC17 dose, tumor-bearing animals were randomly assigned into groups according to their tumor sizes or the same number of days post intravenous implantation (i.e., THP1-FRβ).\nFor MDA-MB-231 studies, mice received a high dose (~10 million) of a “clinical facsimile” of E2-CAR-T cells (~39% EGFRt+) with a low differentiation profile (FIG. 9). Two days later, 3 different treatment regimens of EC17 were started at an average tumor size of −293±39 mm^3 (FIG. 12). The EC17 dosing was given once-a-week (SIW) at 500 nmol/kg on Mondays, or as escalating doses of 5, 50 or 100, and 500 or 1000 nmol/kg (i.e., 5/50/500 or 5/100/1000) on Monday, Thursday, and Monday with a 6-day break in-between cycles. Control mice were left untreated (received CAR-T cells but no EC17). For comparison, a cohort of tumor-free littermates also received the same number of CAR-T cells without or with EC17 SIW at 500 nmol/kg.\nThe initial EC17 dose finding studies were conducted in MDA-MB-231 tumor bearing mice as shown by the schematic diagram of the experimental layout (FIG. 12, panel A). NSG mice without or with MDA-MB-231 tumors (~211±65 mm3) were engrafted on day 0 with −10 million of a “clinical facsimile” batch of E2-CAR-T cells (−39% EGFRt+, 51:49 CD4/CD8). This batch of CAR-T cells consisted of mostly TSCM and TCM phenotypes (see FIG. 9). Two days after the CAR-T cell injection, one cohort of tumor-bearing mice were left untreated while three cohorts were treated with different regimens of EC17, including single injection per week (SIW) at 500 nmol/kg, or as escalating EC17 dose levels of 5/50/500 (Escalation-1) or 5/100/1000 nmol/kg (Escalation-2) given on a Monday/Thursday/Monday schedule with 1-week drug-free intervals. For comparison, two tumor-free cohorts were either untreated or treated with EC17 SIW at 500 nmol/kg.", "key": {"[1]": {"details": "~10 million CAR-T cells, continued EC17 dosing independent of the regimen"}}}
{"smiles": "NC1=NC2N=CC(CNc3ccc(C(=O)N[C@@H](CCC(=O)NCCNC(=S)Nc4ccc(-c5c6ccc(=O)cc-6oc6cc(O)ccc56)c(C(=O)O)c4)C(=O)O)cc3)=NC2C(=O)N1", "note": "(stereo partly drawn) [EC17, FA-(γ)-ethylenediamine-FITC]", "values": [{"measurement": "cures", "setting": "EC17-treated cohorts", "result": 100, "unit": "%"}, {"measurement": "body weight loss", "setting": "EC17 Escalation-2 regimen 5/100/1000 nmol/kg", "result": "persistent body weight loss"}, {"measurement": "onset of CRS and body weight loss", "setting": "EC17 SIW at 500 nmol/kg", "result": "earliest onset of CRS and body weight loss"}, {"measurement": "human IFNγ in mouse plasma, fold over CAR-T cells only", "setting": "day 11 (~20 hours after previous EC17 dose)", "result": "~ 30 ×"}, {"measurement": "human IFNγ in mouse plasma, fold over CAR-T cells only", "setting": "day 12 (~42 hours after previous EC17 dose)", "result": "~ 10 ×"}, {"measurement": "EC17 dose triggering severe CRS (grade≥3)", "setting": "in combination with a high CAR-T cell dose", "result": "≥ 500", "unit": "nmol/kg"}, {"measurement": "persistence of CAR-T cells in mouse blood", "setting": "tumor-bearing animals, last measurement", "result": "up to 54 days"}, {"measurement": "CRS symptoms (grades)", "setting": "[1]", "result": "2-3"}, {"measurement": "body weight loss", "setting": "[1]", "result": "significant body weight losses"}]}
